From PubChem BioAssay (NCI)
Where “and” joins values, the source holds several entries; their conditions need not be identical. Equal values may be shown once.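 48-hour exposure; five concentrations; linearly interpolated endpoints. GI50 is the concentration that inhibits growth by half. TGI: concentration producing complete growth inhibition.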

Tests used:
Test in all cases: inhibition of tumour cell growth, NCI panel, 48 h
SN12C renal = tested on: SN12C renal
A498 renal = tested on: A498 renal
SF-539 CNS = tested on: SF-539 CNS
786-0 renal = tested on: 786-0 renal
NCI-H522 lung = tested on: NCI-H522 lung
HCT-15 colon = tested on: HCT-15 colon
CCRF-CEM leukemia = tested on: CCRF-CEM leukemia
RPMI-8226 leukemia = tested on: RPMI-8226 leukemia
NCI-H23 lung = tested on: NCI-H23 lung
OVCAR-5 ovarian = tested on: OVCAR-5 ovarian

SMILES | GI50 (SN12C renal) [µM] | TGI (SN12C renal) [µM] | GI50 (A498 renal) [µM] | TGI (A498 renal) | GI50 (SF-539 CNS) | TGI (SF-539 CNS) | GI50 (786-0 renal) [µM] | TGI (786-0 renal) | GI50 (NCI-H522 lung) | TGI (NCI-H522 lung) | GI50 (HCT-15 colon) [µM] | TGI (HCT-15 colon) [µM] | GI50 (CCRF-CEM leukemia) [µM] | TGI (CCRF-CEM leukemia) [µM] | GI50 (RPMI-8226 leukemia) [µM] | TGI (RPMI-8226 leukemia) [µM] | GI50 (NCI-H23 lung) | TGI (NCI-H23 lung) | GI50 (OVCAR-5 ovarian) | TGI (OVCAR-5 ovarian)
C[C@H]1[C@H](C)CC[C@]2(C(=O)O)CC[C@]3(C)C(=CC[C@@H]4[C@@]5(C)CC[C@H](OC(=O)/C=C/c6ccc(O)cc6)C(C)(C)[C@@H]5CC[C@]43C)[C@H]12 | 2.15 | 5.65 | 21.1 | 37.9 µM | 3.8 µM | 10.2 µM | 3.57 | 9.53 µM | 9.45 µM | 23 µM | 10.9 | 33 | 5 | > 40.4 | 5.49 | 48.5 | 3.11 µM | 8.36 µM | 5.27 µM | 12.7 µM
CCC[CH2][Ge]([CH2]CCC)([CH2]CCC)[O]C(=O)C(O)c1ccccc1 (stereo not given) | 4.58 | 23.4 | 11.7 | 26.8 µM | 9.64 µM | 22.1 µM | 7.41 | 23.2 µM | 0.411 µM | 5.65 µM | 1.78 | 14.2 | 0.207 | 25.7 | 0.641 | 42.2 | 0.366 µM | 9.91 µM | 6.27 µM | 21.7 µM
O=C(NNc1ccccc1)OCc1ccccc1 | 73.8 | > 100 | 13.3 | > 100 µM | 2.91 µM | 10.3 µM | 7.01 | > 100 µM | 33.6 µM | > 100 µM | 4.98 | > 100 | 3.94 | > 100 | 17.3 | > 100 | 69.5 µM | > 100 µM | 8.05 µM | > 100 µM
Nc1nc(N)c2c(ccc3nccc32)[nH]1 | 6.91 | > 68.6 | 18.3 | 98.3 µM | 3.26 µM | > 86.1 µM | 7.01 | > 100 µM | 4.88 µM | 24.3 µM | 2.35 | > 100 | 1.57 | > 100 | 3.73 | 21.7 | 6.46 µM | > 100 µM | 12.4 µM | > 100 µM
CCOC(=O)c1ccc(Nc2sc(C(=O)c3cccc([N+](=O)[O-])c3)c(N)c2C#N)cc1 | 0.497 | > 46.7 | 0.0827 | 5.04 µM | 0.0885 µM | 13.2 µM | 0.122 | 15.3 µM | 0.0277 µM | 0.852 µM | 0.102 | > 100 | 0.067 | 8.34 | 0.333 | 20.3 | 0.425 µM | 22.6 µM | 2.25 µM | 29.6 µM
C/C(=N\NC(=O)c1ccccc1O)c1cccc(/C(C)=N/NC(=O)c2ccccc2O)n1 | 0.731 | > 100 | 2.42 | > 100 µM and 16.7 µM | 5.96 µM and 0.918 µM | 23.3 µM and > 100 µM | 0.616 | 45.6 µM and 18.4 µM | 4.75 µM and 0.856 µM | 27.8 µM and > 100 µM | 0.568 | > 100 | 0.693 | 48.8 | > 100 | > 100 | 16 µM and 1.73 µM | 63.8 µM and > 100 µM | 10.8 µM and > 95.7 µM | 49.5 µM and > 100 µM
CC1=C(C(=O)CC(=O)C(=O)Nc2ccccc2)Sc2ccccc2N1 |  | > 100 |  | > 100 µM |  | > 100 µM |  | > 100 µM |  | > 100 µM |  | > 100 |  | > 100 |  | > 100 |  | > 100 µM |  | > 100 µM
